PubChem BioAssay (NCI)
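Values below derive from 48-hour exposures of cells grown in 96-well plates, with endpoints linearly interpolated between the two concentrations bracketing the appropriate inhibition level. At the TGI there is no net growth.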

Assays:
Test in all cases: growth of human tumour cells (NCI), 48 h
[1] = system: RXF 393 renal
[2] = system: TK-10 renal
[3] = system: SK-MEL-2 melanoma
[4] = system: SF-268 CNS
[5] = system: HS 578T breast
[6] = system: A498 renal
[7] = system: HT29 colon
[8] = system: NCI-H226 lung
[9] = system: LOX IMVI melanoma
[10] = system: MDA-MB-231 breast
[11] = system: NCI-H522 lung
[12] = system: UACC-62 melanoma
[13] = system: KM12 colon
[14] = system: CAKI-1 renal
[15] = system: RPMI-8226 leukemia
[16] = system: NCI/ADR-RES ovarian
[17] = system: NCI-H23 lung
[18] = system: OVCAR-3 ovarian
[19] = system: UACC-257 melanoma
[20] = system: SN12C renal
[21] = system: OVCAR-4 ovarian
[22] = system: SW-620 colon
[23] = system: OVCAR-5 ovarian
[24] = system: K-562 leukemia
[25] = system: OVCAR-8 ovarian
[26] = system: DU-145 prostate
[27] = system: SF-539 CNS
[28] = system: NCI-H460 lung
[29] = system: MCF7 breast
[30] = system: SF-295 CNS
[31] = system: HOP-92 NSCLC
[32] = system: SK-MEL-5 melanoma
[33] = system: CCRF-CEM leukemia
[34] = system: MDA-MB-435
[35] = system: PC-3 prostate
[36] = system: SNB-75 CNS
[37] = system: 786-0 renal
[38] = system: HOP-62 NSCLC
[39] = system: HCT-116 colon
[40] = system: COLO 205 colon
[41] = system: SR leukemia
[42] = system: HL-60(TB) leukemia
[43] = system: BT-549 breast
[44] = system: ACHN renal
[45] = system: MOLT-4 leukemia
[46] = system: T-47D breast
[47] = system: IGROV1 ovarian
[48] = system: EKVX NSCLC
[49] = system: HCT-15 colon
[50] = system: SK-OV-3 ovarian
[51] = system: U251 CNS
[52] = system: SK-MEL-28 melanoma
[53] = system: MALME-3M melanoma
[54] = system: A549 NSCLC
[55] = system: SNB-19 CNS
[56] = system: UO-31 renal
[57] = system: M14 melanoma
[58] = system: HCC-2998 colon

## CC(C)(C)c1cc(/C=C2/NC(=O)NC2=O)cc(C(C)(C)C)c1O
[1]
  TGI: 19.7 µM
[2]
  TGI: 30.2 µM
[3]
  TGI: 27.2 µM
[4]
  TGI: 28.8 µM
[5]
  TGI: 36 µM
[6]
  TGI: 27 µM
[7]
  TGI: 31.7 µM
[8]
  TGI: 33 µM
[9]
  TGI: 32.9 µM
[10]
  TGI: 26.2 µM
[11]
  TGI: 26.4 µM
[12]
  TGI: 30.5 µM
[13]
  TGI: 28.5 µM
[14]
  TGI: 31.5 µM
[15]
  TGI: 31.9 µM
[16]
  TGI: 34.1 µM
[17]
  TGI: 30.6 µM
[18]
  TGI: 27.9 µM
[19]
  TGI: 29.9 µM
[20]
  TGI: 31.4 µM
[21]
  TGI: 26 µM
[22]
  TGI: 39.3 µM
[23]
  TGI: 30.8 µM
[24]
  TGI: 33.1 µM
[25]
  TGI: 38.5 µM
[26]
  TGI: 30.3 µM
[27]
  TGI: 31.6 µM
[28]
  TGI: 29.1 µM
[29]
  TGI: 29.9 µM
[30]
  TGI: 29.1 µM
[31]
  TGI: 27.9 µM
[32]
  TGI: 27 µM
[33]
  TGI: 32.8 µM
[34]
  TGI: 33.4 µM
[35]
  TGI: 20.3 µM
[36]
  TGI: 25.2 µM
[37]
  TGI: 33.3 µM
[38]
  TGI: 33.1 µM
[39]
  TGI: 30.4 µM
[40]
  TGI: 28.5 µM
[41]
  TGI: 33.2 µM
[42]
  TGI: 25.9 µM
[43]
  TGI: 27.3 µM
[44]
  TGI: 24.1 µM
[45]
  TGI: 44.6 µM
[46]
  TGI: 11.8 µM
[47]
  TGI: 31.1 µM
[48]
  TGI: 24 µM
[49]
  TGI: 28.2 µM
[50]
  TGI: 32 µM
[51]
  TGI: 25.8 µM
[52]
  TGI: 32 µM
[53]
  TGI: 34.6 µM

## C[N+]1(CCN=C=NC2CCCCC2)CCOCC1
[1]
  TGI: > 100 µM
[2]
  TGI: > 100 µM
[3]
  TGI: > 100 µM
[4]
  TGI: > 100 µM
[5]
  TGI: > 100 µM
[54]
  TGI: > 100 µM
[6]
  TGI: > 100 µM
[7]
  TGI: > 100 µM
[8]
  TGI: > 100 µM
[9]
  TGI: > 100 µM
[10]
  TGI: > 100 µM
[11]
  TGI: > 100 µM
[12]
  TGI: > 100 µM
[13]
  TGI: > 100 µM
[14]
  TGI: > 100 µM
[15]
  TGI: > 100 µM
[16]
  TGI: > 100 µM
[17]
  TGI: > 100 µM
[18]
  TGI: > 100 µM
[19]
  TGI: > 100 µM
[20]
  TGI: > 100 µM
[21]
  TGI: > 100 µM
[22]
  TGI: > 100 µM
[23]
  TGI: > 100 µM
[24]
  TGI: > 100 µM
[25]
  TGI: > 100 µM
[26]
  TGI: > 100 µM
[27]
  TGI: > 100 µM
[28]
  TGI: > 100 µM
[29]
  TGI: > 100 µM
[30]
  TGI: > 100 µM
[31]
  TGI: > 100 µM
[55]
  TGI: > 100 µM
[56]
  TGI: > 100 µM
[57]
  TGI: > 100 µM
[32]
  TGI: > 100 µM
[33]
  TGI: > 100 µM
[34]
  TGI: > 100 µM
[35]
  TGI: > 100 µM
[36]
  TGI: > 100 µM
[37]
  TGI: > 100 µM
[38]
  TGI: > 100 µM
[39]
  TGI: > 100 µM
[40]
  TGI: > 100 µM
[41]
  TGI: > 100 µM
[42]
  TGI: > 100 µM
[43]
  TGI: > 100 µM
[44]
  TGI: > 100 µM
[45]
  TGI: > 100 µM
[46]
  TGI: > 100 µM
[47]
  TGI: > 100 µM
[48]
  TGI: > 100 µM
[49]
  TGI: > 100 µM
[50]
  TGI: > 100 µM
[51]
  TGI: > 100 µM
[52]
  TGI: > 100 µM
[53]
  TGI: > 100 µM

## Cc1cc2c(C(C)C)c(O)c(O)c(C=Nc3cc(C(F)(F)F)ccc3Cl)c2c(O)c1-c1c(C)cc2c(C(C)C)c(O)c(O)c(C=Nc3cc(C(F)(F)F)ccc3Cl)c2c1O
[1]
  TGI: 97.7 µM
[2]
  TGI: > 100 µM
[3]
  TGI: 80.8 µM
[4]
  TGI: > 100 µM
[5]
  TGI: > 100 µM
[54]
  TGI: > 100 µM
[6]
  TGI: > 100 µM
[7]
  TGI: 79.3 µM
[8]
  TGI: 95.4 µM
[9]
  TGI: 47.3 µM
[10]
  TGI: > 100 µM
[11]
  TGI: 45.4 µM
[12]
  TGI: 51.8 µM
[13]
  TGI: 92.4 µM
[14]
  TGI: > 100 µM
[15]
  TGI: > 100 µM
[16]
  TGI: > 100 µM
[17]
  TGI: > 100 µM
[18]
  TGI: > 100 µM
[19]
  TGI: > 100 µM
[20]
  TGI: > 100 µM
[22]
  TGI: > 100 µM
[23]
  TGI: > 100 µM
[24]
  TGI: > 100 µM
[25]
  TGI: > 100 µM
[26]
  TGI: > 100 µM
[27]
  TGI: > 100 µM
[28]
  TGI: > 100 µM
[29]
  TGI: 71.4 µM
[58]
  TGI: > 100 µM
[31]
  TGI: 53.5 µM
[55]
  TGI: > 100 µM
[56]
  TGI: > 100 µM
[57]
  TGI: > 100 µM
[32]
  TGI: 64.7 µM
[33]
  TGI: > 100 µM
[34]
  TGI: 86 µM
[35]
  TGI: > 100 µM
[37]
  TGI: > 100 µM
[38]
  TGI: > 100 µM
[39]
  TGI: > 100 µM
[40]
  TGI: 90.5 µM
[41]
  TGI: > 100 µM
[42]
  TGI: 78.5 µM
[43]
  TGI: 77.6 µM
[44]
  TGI: 79.4 µM
[46]
  TGI: > 100 µM
[47]
  TGI: 75 µM
[48]
  TGI: > 100 µM
[49]
  TGI: > 100 µM
[50]
  TGI: 54 µM
[51]
  TGI: 72.2 µM
[52]
  TGI: > 100 µM
[53]
  TGI: 95 µM
